According to patent EP4600243A2, “NOVEL BICYCLIC HETEROCYCLYL COMPOUNDS AND USE THEREOF” (Jeil Pharmaceutical Co., Ltd., priority 2022, dated 2024):

Biological target: T1, protein-protein interaction between SOS1 and KRAS G12C (Homo sapiens, UniProt Q07889)
T1 construct: purchased Cisbio 64KRASG12PEG
T1 sequence (Q07889 1-1333): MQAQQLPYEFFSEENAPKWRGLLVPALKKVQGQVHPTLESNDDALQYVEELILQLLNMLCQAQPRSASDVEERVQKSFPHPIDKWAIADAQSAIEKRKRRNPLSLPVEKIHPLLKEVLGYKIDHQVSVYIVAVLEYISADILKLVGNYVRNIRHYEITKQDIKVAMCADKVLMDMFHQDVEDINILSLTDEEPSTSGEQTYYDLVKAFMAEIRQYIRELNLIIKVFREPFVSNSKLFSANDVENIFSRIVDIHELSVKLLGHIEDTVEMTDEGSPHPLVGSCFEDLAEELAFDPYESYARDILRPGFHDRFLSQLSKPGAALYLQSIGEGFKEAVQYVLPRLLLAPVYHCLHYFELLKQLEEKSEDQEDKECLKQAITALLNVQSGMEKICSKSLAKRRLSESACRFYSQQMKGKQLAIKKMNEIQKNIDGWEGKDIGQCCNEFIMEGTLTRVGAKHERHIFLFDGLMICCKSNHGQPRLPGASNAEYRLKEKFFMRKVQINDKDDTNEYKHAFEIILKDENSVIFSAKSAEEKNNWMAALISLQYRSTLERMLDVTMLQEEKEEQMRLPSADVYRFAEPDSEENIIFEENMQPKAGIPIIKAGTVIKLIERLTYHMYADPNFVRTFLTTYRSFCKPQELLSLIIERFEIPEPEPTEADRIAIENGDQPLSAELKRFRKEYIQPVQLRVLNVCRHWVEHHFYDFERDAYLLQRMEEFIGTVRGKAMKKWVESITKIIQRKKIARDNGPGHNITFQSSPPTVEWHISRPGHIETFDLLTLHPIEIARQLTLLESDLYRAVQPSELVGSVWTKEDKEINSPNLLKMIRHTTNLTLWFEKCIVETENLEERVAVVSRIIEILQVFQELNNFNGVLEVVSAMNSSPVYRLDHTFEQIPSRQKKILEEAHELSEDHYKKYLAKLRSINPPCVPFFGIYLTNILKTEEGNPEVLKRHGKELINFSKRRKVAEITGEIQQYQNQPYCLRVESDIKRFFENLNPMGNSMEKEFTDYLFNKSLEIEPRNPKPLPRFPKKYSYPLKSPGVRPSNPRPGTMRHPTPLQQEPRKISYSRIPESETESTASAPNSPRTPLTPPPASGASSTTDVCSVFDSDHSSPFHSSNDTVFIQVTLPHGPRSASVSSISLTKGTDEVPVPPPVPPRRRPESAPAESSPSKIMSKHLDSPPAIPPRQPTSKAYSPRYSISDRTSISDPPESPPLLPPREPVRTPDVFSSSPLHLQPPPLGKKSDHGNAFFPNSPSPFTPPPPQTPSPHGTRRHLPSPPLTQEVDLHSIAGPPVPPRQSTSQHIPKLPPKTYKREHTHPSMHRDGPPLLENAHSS
Assay: KRAS::SOS1 HTRF binding analysis (KRAS G12C/SOS1 binding kit)
Settings: compound at 0.1 uM
Description: 1-1. KRAS::SOS1 HTRF binding analysis
An SOS1 inhibitory ability of the example compounds of the present invention was confirmed by identifying the effect of inhibiting a protein-protein interaction between SOS1 and KRAS G12C of the compounds according to examples of the present invention.
Specifically, a KRAS G12C/SOS1 binding kit (64KRASG12PEG, Cisbio, France) was purchased and used. 2 µℓ of Tag1-KRAS G12C and 2 µℓ of GTP were premixed and dispensed 4 µl each into a 384 well plate (6007290, PerkinElmer, USA). 2 µℓ of the compound and 4 µℓ of Tag2-SOS1 were placed and then 10 µℓ of premixed Anti-Tag1 XL665 antibody and Anti-Tag2 Tb cryptate antibody was dispensed to each well. The plates were sealed and allowed to react at room temperature for one hour and 40 minutes, and then 665 nm wavelength and 620 nm wavelength were measured using a HTRF® compatible reader (Synergy H4, BioTeK, USA), and the ratio of receptor and donor emission signals for each well was calculated as 665 nm/620 nm×10^4.
(+++: more than 70 to 100% inhibition, ++: more than 40 to 70% inhibition, +: 0 to 40% inhibition) [Table 4]

Row | inhibition at 0.1 µM [%] | Structure (SMILES)
1 | 40 to 70 | C[C@@H](Nc1cnnc2ccc(N3CCC[C@H](O)C3)cc12)c1cccc(C(F)F)c1F [Example 21, (S)-1-(4-(((R)-1-(3-(difluoromethyl)-2-fluorophenyl)ethyl)amino)cinnolin-6-yl)piperidin-3-ol]
2 | 40 to 70 | C[C@@H](Nc1cnnc2ccc(N3CCN4CCOC[C@@H]4C3)cc12)c1cccc(C(F)F)c1F [Example 9, N-((R)-1-(3-(difluoromethyl)-2-fluorophenyl)ethyl)-6-((S)-hexahydropyrazino[2,1-c][1,4]oxazin-8(1H)-yl)cinnolin-4-amine]
3 | 70 to 100 | C[C@@H](Nc1cnnc2ccc(N3CCC(O)CC3)cc12)c1cccc(C(F)F)c1F [Example 18, (R)-1-(4-((1-(3-(difluoromethyl)-2-fluorophenyl)ethyl)amino)cinnolin-6-yl)piperidin-4-ol]
4 | 0 to 40 | C[C@H]1CN(c2ccc3nncc(N[C@H](C)c4cccc(C(F)F)c4F)c3c2)CCO1 [Example 59, N-((R)-1-(3-(difluoromethyl)-2-fluorophenyl)ethyl)-6-((S)-2-methylmorpholino)cinnolin-4-amine]
5 | 40 to 70 | C[C@@H](Nc1cnnc2ccc(N3CCC(N(C)C)CC3)cc12)c1cccc(C(F)F)c1F [Example 6, (R)-N-(1-(3-(difluoromethyl)-2-fluorophenyl)ethyl)-6-(4-(dimethylamino)piperidin-1-yl)cinnolin-4-amine]
6 | 0 to 40 | C[C@@H](Nc1cnnc2ccc(N3CCSCC3)cc12)c1cccc(C(F)F)c1F [Example 17, (R)-N-(1-(3-(difluoromethyl)-2-fluorophenyl)ethyl)-6-thiomorpholinocinnolin-4-amine]
7 | 40 to 70 | C[C@@H](Nc1cnnc2ccc(N3C[C@H]4C[C@@H]3CO4)cc12)c1cccc(C(F)F)c1F [Example 13, 6-((1R,4R)-2-oxa-5-azabicyclo[2.2.1]heptan-5-yl)-N-((R)-1-(3-(difluoromethyl)-2-fluorophenyl)ethyl)cinnolin-4-amine]
8 | 0 to 40 | C[C@@H]1CN(c2ccc3nncc(N[C@H](C)c4cccc(C(F)F)c4F)c3c2)CCO1 [Example 57, N-((R)-1-(3-(difluoromethyl)-2-fluorophenyl)ethyl)-6-((R)-2-methylmorpholino)cinnolin-4-amine]
9 | 0 to 40 | C[C@@H](Nc1cnnc2ccc(N3CC4(COC4)C3)cc12)c1cccc(C(F)F)c1F [Example 11, (R)-N-(1-(3-(difluoromethyl)-2-fluorophenyl)ethyl)-6-(2-oxa-6-azaspiro[3.3]heptan-6-yl)cinnolin-4-amine]
10 | 70 to 100 | C[C@@H](Nc1cnnc2ccc(N3CCN(C(=O)C4COC4)CC3)cc12)c1cccc(C(F)F)c1F [Example 41, (R)-(4-(4-(1-(3-(difluoromethyl)-2-fluorophenyl)ethylamino)cinnolin-6-yl)piperazin-1-yl)(oxetan-3-yl)methanone]
11 | 0 to 40 | C[C@@H](Nc1cnnc2ccc(N3CC[C@@H](F)C3)cc12)c1cccc(C(F)F)c1F [Example 25, N-((R)-1-(3-(difluoromethyl)-2-fluorophenyl)ethyl)-6-((R)-3-fluoropyrrolidin-1-yl)cinnolin-4-amine]
12 | 0 to 40 | C[C@@H](Nc1cnnc2ccc(N3CC[C@H](O)C3)cc12)c1cccc(C(F)F)c1F [Example 28, (S)-1-(4-(((R)-1-(3-(difluoromethyl)-2-fluorophenyl)ethyl)amino)cinnolin-6-yl)pyrrolidin-3-ol]
13 | 0 to 40 | COC1CN(c2ccc3nncc(N[C@H](C)c4cccc(C(F)F)c4F)c3c2)C1 [Example 31, (R)-N-(1-(3-(difluoromethyl)-2-fluorophenyl)ethyl)-6-(3-methoxyazetidin-1-yl)cinnolin-4-amine]
14 | 40 to 70 | C[C@@H](Nc1cnnc2ccc(N3CCC(C)(O)CC3)cc12)c1cccc(C(F)F)c1F [Example 19, (R)-1-(4-((1-(3-(difluoromethyl)-2-fluorophenyl)ethyl)amino)cinnolin-6-yl)-4-methylpiperidin-4-ol]

Further lines, the compound ahead of its results:

Row | Structure (SMILES) | inhibition at 0.1 µM [%]
15 | Cc1c([C@@H](C)Nc2cnnc3ccc(N4CC5CC(C4)O5)cc23)cccc1C(F)(F)F [Example 48, 6-(6-oxa-3-azabicyclo[3.1.1]heptan-3-yl)-N-((R)-1-(2-methyl-3-(trifluoromethyl)phenyl)ethyl)cinnolin-4-amine] | 0 to 40
16 | C[C@@H](Nc1cnnc2ccc(C3=CCN(C(=O)C4CC4)CC3)cc12)c1cccc(C(F)F)c1F [Example 61, (R)-cyclopropyl(4-(4-(1-(3-(difluoromethyl)-2-fluorophenyl)ethylamino)cinnolin-6-yl)-5,6-dihydropyridin-1(2H)-yl)methanone] | 0 to 40
17 | C[C@@H](Nc1cnnc2ccc(N3CC4CC(C3)O4)cc12)c1cccc(C(F)F)c1 [Example 42, 6-(6-oxa-3-azabicyclo[3.1.1]heptan-3-yl)-N-((R)-1-(3-(difluoromethyl)phenyl)ethyl)cinnolin-4-amine] | 0 to 40
18 | C[C@@H](Nc1cnnc2ccc(C3=CCOCC3)cc12)c1cccc(C(F)F)c1F [Example 4, (R)-N-(1-(3-(difluoromethyl)-2-fluorophenyl)ethyl)-6-(3,6-dihydro-2H-pyran-4-yl)cinnolin-4-amine] | 0 to 40
19 | CC(=O)N1CC=C(c2ccc3nncc(N[C@H](C)c4cccc(C(F)F)c4F)c3c2)CC1 [Example 1, (R)-1-(4-(4-(1-(3-(difluoromethyl)-2-fluorophenyl)ethylamino)cinnolin-6-yl)-5,6-dihydropyridin-1(2H)-yl)ethanone] | 0 to 40
20 | C[C@@H](Nc1cnnc2ccc(N[C@@H]3CCNC3)cc12)c1cccc(C(F)F)c1F [Example 39, N4-((R)-1-(3-(difluoromethyl)-2-fluorophenyl)ethyl)-N6-((R)-pyrrolidin-3-yl)cinnolin-4,6-diamine] | 70 to 100
21 | C[C@@H](Nc1cnnc2ccc(N3CC4CC(C3)O4)cc12)c1cccc(C(F)F)c1F [Example 12, 6-(6-oxa-3-azabicyclo[3.1.1]heptan-3-yl)-N-((R)-1-(3-(difluoromethyl)-2-fluorophenyl)ethyl)cinnolin-4-amine] | 40 to 70
22 | Cc1c(C#N)cccc1[C@@H](C)Nc1cnnc2ccc(N3CC4CC(C3)O4)cc12 [Example 50, 3-((1R)-1-((6-(6-oxa-3-azabicyclo[3.1.1]heptan-3-yl)cinnolin-4-yl)amino)ethyl)-2-methylbenzonitrile] | 0 to 40
23 | Cc1c(C#N)cccc1[C@@H](C)Nc1cnnc2ccc(N3CCC(C)(O)CC3)cc12 [Example 51, (R)-3-(1-((6-(4-hydroxy-4-methylpiperidin-1-yl)cinnolin-4-yl)amino)ethyl)-2-methylbenzonitrile] | 0 to 40
24 | C[C@@H](Nc1cnnc2ccc(NC3CCOCC3)cc12)c1cccc(C(F)F)c1F [Example 37, (R)-N4-(1-(3-(difluoromethyl)-2-fluorophenyl)ethyl)-N6-(tetrahydro-2H-pyran-4-yl)cinnolin-4,6-diamine] | 0 to 40
25 | C[C@@H](Nc1cnnc2ccc(N3CC4CC(C3)O4)cc12)c1cccc(F)c1F [Example 56, 6-(6-oxa-3-azabicyclo[3.1.1]heptan-3-yl)-N-((R)-1-(2,3-difluorophenyl)ethyl)cinnolin-4-amine] | 0 to 40
